Test system: T cells in the peripheral blood
Assay: ELISPOT assay (IFN-γ / IL-4) on patients' peripheral blood T cells before/after dendritic cell immunotherapy
Type: cell-based, human
Method: As described above, dendritic cells activate CTL to attack target cells to treat a disease. Accordingly, dendritic cells activated by peptides including PEP1 were prepared, administered to each individual, and subjected to an ELISPOT assay to observe an increase in T cell responses to each peptide in each individual.
The experiments were performed on four patients with different diseases (cancers), and a dendritic cell immunotherapy method is as follows. Mononuclear cells were collected from peripheral blood extracted from each patient and cultured. Immature dendritic cells differentiated in the mononuclear cell culture were subjected to antigen activation with tumor-associated antigen peptides including PEP1. When the dendritic cells became mature, antigen activation was carried out once more with the same peptides. The activated mature dendritic cells were separated and then administered to each patient.
More specifically, dendritic cells and NK cells used in treatment were prepared by proliferating mononuclear cells obtained from 25 ml of whole blood taken from a patient every two weeks, and differentiating the proliferated mononuclear cells into dendritic cells. That is, in this example, CD14+ mononuclear cells obtained from a peripheral blood vessel of the patient were cultured with IL-4 and GM-CFS for 6 days and proliferated, and then treated with a Streptococcus agent OK-432 for maturation. In addition, in the preparation of the dendritic cells, the dendritic cells were activated by WT1, MUC1 and other antigens.
According to cancer characteristics of a patient undergoing a gene test, an antigen test and a tumor marker test, a substance having a similar function to a tumor-associated antigen (a cancer cell lysate, tumor-specific protein, or tumor-associated peptide) was added to the dendritic cells to enhance a cancer-recognizing ability of the dendritic cells, which is an activation process. For dendritic cell activation, as tumor-associated antigens that can be used in the present invention but not limited thereto, WT1, MUC-1, CA125, MAGE-A3, CEA, NY-ESO1, survinin, Her2, and the telomerase-derived peptide PEP1 were used. As an activation method but not limited to a specific example, the dendritic cells may be cultured with such a tumor-associated antigen. The activation may be performed on immature dendritic cells or mature dendritic cells. In one specific example of the present invention, mononuclear cells were collected from a patient's peripheral blood and cultured, immature dendritic cells differentiated from the mononuclear cells were treated with a peptide to activate and thus differentiated into mature dendritic cells, and then the mature dendritic cells were treated with the same peptide for activation. An amount of the antigen used in the activation may be the same as generally used in the art as follows but is not limited thereto. For example, PEP1 may be used in an amount of 1 to 1000 μg/ml along with the antigens, and 20 μg/ml of WT1, 20 μg/ml of MUC1, 20 μg/ml of CEA, 500 μg/ml of CA125, and 20 μg/ml of HER2 may be used. The dendritic cells (1×10^7) prepared as described above were intradermally injected six times every 14 days.
The following experiment was performed to examine whether dendritic cell immunotherapy leads to an increase in T cell responses to peptides activated by an antigen. A buffy coat layer was separated from the peripheral blood of a patient subjected to the dendritic cell immunotherapy using a ficoll method (centrifugation using a ficoll), and mononuclear cells were obtained therefrom. Following 3 to 4-day culture, an ELISPOT assay was carried out. The ELISPOT assay was performed according to a protocol of an ImmunoSpot kit (Celluluar Technology Limited, USA). […] As peptide stimulants (antigen peptides), Peptivator WT1, Peptivator NY-ESO1 (Miltenyi Biotec., Germany), MUC-1, MAGE-A3, Survivin and PEP1 were added to each well at an optimum concentration and cultured for 48 hours. […]

Sequence: EARPALLTSRLRFIPK (homo sapiens) [PEP1, telomerase-derived peptide composed of 16 amino acids, position [611-626] on telomerase]
- Number of spots, IL-4 (Patient 1 (stomach cancer), 7 days after six times of dendritic cell vaccine administration, negative control 17): 335
- Number of spots, IFN-γ (Patient 1 (stomach cancer), 7 days after six times of dendritic cell vaccine administration, negative control 27): 567
- Number of spots, IL-4 (Patient 1 (stomach cancer), before dendritic cell vaccine administration, negative control 1): 2
- Number of spots, IFN-γ (Patient 1 (stomach cancer), before dendritic cell vaccine administration, negative control 5): 3
- ELISPOT spots compared with the negative control (Patient 1, after the treatment (dendritic cell vaccine six times)): increased
- Number of spots, IL-4 (Patient 2 (lung cancer), 44 days after six times of dendritic cell vaccine administration, negative control 2): 410
- Number of spots, IFN-γ (Patient 2 (lung cancer), 44 days after six times of dendritic cell vaccine administration, negative control 153, *exact number was not obtained): ~332.5*
- Number of spots, IL-4 (Patient 2 (lung cancer), before dendritic cell vaccine administration, negative control 0): 9
- Number of spots, IFN-γ (Patient 2 (lung cancer), before dendritic cell vaccine administration, negative control 1): 0
- ELISPOT spots compared with the negative control (Patient 2, after the treatment (dendritic cell vaccine 6 times)): increased
- Number of spots, IL-4 (Patient 3 (pancreatic cancer), 11 days after six times of dendritic cell vaccine administration, negative control 2): 434
- Number of spots, IFN-γ (Patient 3 (pancreatic cancer), 11 days after six times of dendritic cell vaccine administration, negative control 14): 632
- Number of spots, IFN-γ (Patient 3 (pancreatic cancer), before dendritic cell vaccine administration, negative control 3): 1
- Number of spots, IL-4 (Patient 3 (pancreatic cancer), before dendritic cell vaccine administration, negative control 8): 4
- ELISPOT spots compared with the negative control (Patient 3, after the treatment (dendritic cell vaccine 6 times)): increased
- Number of spots, IFN-γ (Patient 4 (breast cancer), 35 days after six times of dendritic cell vaccine administration, 2×10^5 cells/well, negative control 12): 258
- Number of spots, IL-4 (Patient 4 (breast cancer), 35 days after six times of dendritic cell vaccine administration, 2×10^5 cells/well, negative control 20): 353
- Number of spots, IFN-γ (Patient 4 (breast cancer), before dendritic cell vaccine administration, 2×10^5 cells/well, negative control 13): 22
- Number of spots, IL-4 (Patient 4 (breast cancer), before dendritic cell vaccine administration, 2×10^5 cells/well, negative control 17): 3
- ELISPOT spots compared with the negative control (Patient 4, after the treatment (dendritic cell vaccine 6 times)): increased
